Target: T1, Nav1.7 (or SCN9A) channel; HEK cells stably transfected with hSCN9A (Homo sapiens, UniProt Q15858)
T1 construct: expressed in transfected cells
Test: Nav1.7 block, PatchXpress 7000 automated whole-cell voltage clamp, estimated IC50 (EIC50)
Assay type: cell-based
Conditions: PatchXpress platform; hSCN9A HEK cells held at V1/2 of inactivation; estimated IC50

T1 sequence (Q15858 whole entry): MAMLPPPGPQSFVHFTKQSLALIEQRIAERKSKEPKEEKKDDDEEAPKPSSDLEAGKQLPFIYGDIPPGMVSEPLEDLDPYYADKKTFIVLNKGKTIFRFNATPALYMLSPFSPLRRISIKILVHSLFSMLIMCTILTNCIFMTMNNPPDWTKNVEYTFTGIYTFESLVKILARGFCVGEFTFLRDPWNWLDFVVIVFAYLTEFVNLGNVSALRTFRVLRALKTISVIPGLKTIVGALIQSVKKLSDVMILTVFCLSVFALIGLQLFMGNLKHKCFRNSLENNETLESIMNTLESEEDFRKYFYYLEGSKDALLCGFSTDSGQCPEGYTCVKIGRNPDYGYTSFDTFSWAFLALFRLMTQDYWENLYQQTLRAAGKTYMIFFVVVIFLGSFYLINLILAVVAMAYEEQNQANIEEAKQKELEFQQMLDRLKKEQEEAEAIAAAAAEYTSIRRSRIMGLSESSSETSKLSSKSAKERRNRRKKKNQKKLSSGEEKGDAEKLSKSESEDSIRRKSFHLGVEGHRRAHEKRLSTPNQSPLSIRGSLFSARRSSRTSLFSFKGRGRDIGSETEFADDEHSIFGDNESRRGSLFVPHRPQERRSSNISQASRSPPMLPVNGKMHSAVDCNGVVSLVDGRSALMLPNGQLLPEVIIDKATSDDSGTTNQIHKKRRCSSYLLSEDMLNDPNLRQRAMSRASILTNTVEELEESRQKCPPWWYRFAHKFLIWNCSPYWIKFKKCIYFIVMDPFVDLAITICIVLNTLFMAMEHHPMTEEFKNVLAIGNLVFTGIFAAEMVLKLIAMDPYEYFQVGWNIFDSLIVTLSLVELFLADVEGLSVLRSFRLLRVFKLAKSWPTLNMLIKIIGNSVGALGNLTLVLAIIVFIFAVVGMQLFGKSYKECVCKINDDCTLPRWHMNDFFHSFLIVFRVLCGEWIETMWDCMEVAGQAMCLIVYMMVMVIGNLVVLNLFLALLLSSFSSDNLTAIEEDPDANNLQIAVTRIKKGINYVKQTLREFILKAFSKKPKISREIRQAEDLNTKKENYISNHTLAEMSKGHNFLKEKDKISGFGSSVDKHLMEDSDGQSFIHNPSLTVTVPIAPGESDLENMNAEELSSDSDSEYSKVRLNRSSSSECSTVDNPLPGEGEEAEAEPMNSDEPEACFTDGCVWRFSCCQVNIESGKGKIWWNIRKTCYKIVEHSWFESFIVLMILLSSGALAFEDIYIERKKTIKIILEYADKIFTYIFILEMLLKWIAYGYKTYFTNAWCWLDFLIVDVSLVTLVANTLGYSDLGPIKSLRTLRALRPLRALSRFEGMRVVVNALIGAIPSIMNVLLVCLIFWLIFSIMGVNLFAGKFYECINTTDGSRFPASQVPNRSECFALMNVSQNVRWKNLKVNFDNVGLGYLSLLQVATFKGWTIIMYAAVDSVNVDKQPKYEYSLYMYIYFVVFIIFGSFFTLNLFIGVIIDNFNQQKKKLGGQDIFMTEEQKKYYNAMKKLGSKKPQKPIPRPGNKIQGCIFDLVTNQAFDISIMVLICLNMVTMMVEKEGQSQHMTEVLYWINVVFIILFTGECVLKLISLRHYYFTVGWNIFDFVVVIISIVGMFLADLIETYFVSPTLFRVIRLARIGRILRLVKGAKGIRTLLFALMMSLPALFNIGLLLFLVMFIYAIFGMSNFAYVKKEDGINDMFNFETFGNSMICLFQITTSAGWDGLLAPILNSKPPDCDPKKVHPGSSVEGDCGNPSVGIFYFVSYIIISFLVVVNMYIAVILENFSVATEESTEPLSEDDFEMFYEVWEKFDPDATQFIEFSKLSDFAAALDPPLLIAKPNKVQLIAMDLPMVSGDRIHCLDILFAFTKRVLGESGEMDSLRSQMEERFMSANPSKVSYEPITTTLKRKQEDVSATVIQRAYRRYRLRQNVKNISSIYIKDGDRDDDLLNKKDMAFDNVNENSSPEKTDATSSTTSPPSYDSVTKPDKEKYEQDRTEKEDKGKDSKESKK

Row | Compound | IC50
1 | 3-fluoro-4-(4-methyl-2-(1-methyl-1H-pyrazol-3-yl)phenoxy)-N-(thiazol-2-yl)benzenesulfonamide [Example 215] | 6440 nM
2 | Cc1nc(-c2ccccc2Oc2ccc(S(=O)(=O)Nc3nccs3)c(F)c2)cs1 [Example 2] | 810 nM
3 | Cc1cc(OC(C)C)ccc1-c1ccccc1Oc1ccc(S(=O)(=O)Nc2ncns2)cc1C#N [Example 4, 3-cyano-4-[(4′-isopropoxy-2′-methylbiphenyl-2-yl)oxy]-N-1,2,4-thiadiazol-5-ylbenzenesulfonamide] | 1710 nM
4 | N#Cc1cc(S(=O)(=O)Nc2ncns2)ccc1Oc1ccc(F)cc1C1CC1 [Example 6, 3-cyano-4-(2-cyclopropyl-4-fluorophenoxy)-N-1,2,4-thiadiazol-5-ylbenzenesulfonamide] | >1000 nM
5 | CCc1ccc(-c2ncccc2Oc2ccc(S(=O)(=O)Nc3ncns3)cc2C#N)cc1 [Example 7, 3-cyano-4-{[2-(4-ethylphenyl)pyridin-3-yl]oxy}-N-1,2,4-thiadiazol-5-ylbenzenesulfonamide] | 35900 nM
6 | Cc1ccc(-c2nc(N(C)C)ncc2Oc2ccc(S(=O)(=O)Nc3ncns3)cc2C#N)cc1 [Example 9, 3-cyano-4-{[2-(dimethylamino)-4-(4-methylphenyl)pyrimidin-5-yl]oxy}-N-1,2,4-thiadiazol-5-ylbenzenesulfonamide] | 3500 nM
7 | Cc1ccc(Oc2ccc(S(=O)(=O)Nc3ncns3)cc2C#N)c(-c2ccccc2)n1 [Example 12, 3-cyano-4-[(6-methyl-2-phenylpyridin-3-yl)oxy]-N-1,2,4-thiadiazol-5-ylbenzenesulfonamide] | 720 nM
8 | CN(C)c1ncc(Oc2ccc(S(=O)(=O)Nc3ncns3)cc2C#N)c(-c2ccccc2F)n1 [Example 14, 3-cyano-4-{[2-(dimethylamino)-4-(2-fluorophenyl)pyrimidin-5-yl]oxy}-N-1,2,4-thiadiazol-5-ylbenzenesulfonamide] | 4300 nM
9 | Cc1ccc(-c2ncccc2Oc2ccc(S(=O)(=O)Nc3ncns3)cc2C#N)cc1 [Example 17, 3-cyano-4-{[2-(4-methylphenyl)pyridin-3-yl]oxy}-N-1,2,4-thiadiazol-5-ylbenzenesulfonamide] | 25500 nM
10 | N#Cc1cc(S(=O)(=O)Nc2ncns2)ccc1Oc1cnc(N)nc1-c1ccc(Cl)cc1 [Example 18, 4-{[2-amino-4-(4-chlorophenyl)pyrimidin-5-yl]oxy}-3-cyano-N-1,2,4-thiadiazol-5-ylbenzenesulfonamide] | >10000 nM
11 | CCc1ccc(Oc2ccc(S(=O)(=O)Nc3ncns3)cc2C#N)c(-c2ccccc2)n1 [Example 19, 3-cyano-4-[(6-ethyl-2-phenylpyridin-3-yl)oxy]-N-1,2,4-thiadiazol-5-ylbenzenesulfonamide] | 720 nM
12 | N#Cc1cc(S(=O)(=O)Nc2ncns2)ccc1Oc1nccnc1-c1ccccc1 [Example 20, 3-cyano-4-[(3-phenylpyrazin-2-yl)oxy]-N-1,2,4-thiadiazol-5-ylbenzenesulfonamide] | >10000 nM
13 | N#Cc1cc(S(=O)(=O)Nc2ncns2)ccc1Oc1nnccc1-c1ccccc1 [Example 21, 3-cyano-4-[(4-phenylpyridazin-3-yl)oxy]-N-1,2,4-thiadiazol-5-ylbenzenesulfonamide] | >10000 nM
14 | N#Cc1cc(S(=O)(=O)Nc2ncns2)ccc1Oc1cccnc1-c1ccccc1 [Example 22, 3-cyano-4-[(2-phenylpyridin-3-yl)oxy]-N-1,2,4-thiadiazol-5-ylbenzenesulfonamide] | 3140 nM
15 | N#Cc1cc(S(=O)(=O)Nc2ncns2)ccc1Oc1cnc(N)nc1-c1ccccc1 [Example 23, 4-[(2-amino-4-phenylpyrimidin-5-yl)oxy]-3-cyano-N-1,2,4-thiadiazol-5-ylbenzenesulfonamide] | 2030 nM
16 | Cc1ccc(Oc2ccc(S(=O)(=O)Nc3ncns3)cc2C#N)c(-c2c(C)cnn2C)c1 [Example 27, 3-cyano-4-(2-(1,4-dimethyl-1H-pyrazol-5-yl)-4-methylphenoxy)-N-(1,2,4-thiadiazol-5-yl)benzenesulfonamide] | 780 nM
17 | Cc1ccc(Oc2ccc(S(=O)(=O)Nc3ncns3)cc2C#N)c(-c2nn(C)cc2C)c1 [Example 28, 3-cyano-4-(2-(1,4-dimethyl-1H-pyrazol-3-yl)-4-methylphenoxy)-N-(1,2,4-thiadiazol-5-yl)benzenesulfonamide] | 2980 nM
18 | Cc1cccc(-c2cc(F)ccc2F)c1Oc1ccc(S(=O)(=O)Nc2ncns2)cc1C#N [Example 31, 3-cyano-4-[(2′,5′-difluoro-3-methylbiphenyl-2-yl)oxy]-N-1,2,4-thiadiazol-5-ylbenzenesulfonamide] | 16200 nM
19 | Cc1cccc(-c2cccc(OC(C)C)c2)c1Oc1ccc(S(=O)(=O)Nc2ncns2)cc1C#N [Example 32, 3-cyano-4-[(3′-isopropoxy-3-methylbiphenyl-2-yl)oxy]-N-1,2,4-thiadiazol-5-ylbenzenesulfonamide] | 3380 nM
20 | Cc1cccc(-c2ccc(F)cc2F)c1Oc1ccc(S(=O)(=O)Nc2ncns2)cc1C#N [Example 35, 3-cyano-4-[(2′,4′-difluoro-3-methylbiphenyl-2-yl)oxy]-N-1,2,4-thiadiazol-5-ylbenzenesulfonamide] | 12700 nM
21 | N#Cc1cc(S(=O)(=O)Nc2ncns2)ccc1Oc1ccccc1-c1cc(F)ccc1F [Example 36, 3-cyano-4-[(2′,5′-difluorobiphenyl-2-yl)oxy]-N-1,2,4-thiadiazol-5-ylbenzenesulfonamide] | 1290 nM
22 | Cc1cccc(-c2cccc(OC(F)(F)F)c2)c1Oc1ccc(S(=O)(=O)Nc2ncns2)cc1C#N [Example 37, 3-cyano-4-{[3-methyl-3′-(trifluoromethoxy)biphenyl-2-yl]oxy}-N-1,2,4-thiadiazol-5-ylbenzenesulfonamide] | 30900 nM
23 | Cc1cccc(-c2cccc(F)c2)c1Oc1ccc(S(=O)(=O)Nc2ncns2)cc1C#N [Example 38, 3-cyano-4-[(3′-fluoro-3-methylbiphenyl-2-yl)oxy]-N-1,2,4-thiadiazol-5-ylbenzenesulfonamide] | 15500 nM

Continued, values first:

Row | IC50 | Compound
24 | 90 nM | Cn1nccc1-c1cc(F)ccc1Oc1ccc(S(=O)(=O)Nc2ncns2)cc1C#N [Example 1, 3-cyano-4-(4-fluoro-2-(1-methyl-1H-pyrazol-5-yl)phenoxy)-N-(1,2,4-thiadiazol-5-yl)benzenesulfonamide]
25 | 100 nM | Cn1nccc1-c1ccccc1Oc1ccc(S(=O)(=O)Nc2nccs2)cc1F [Example 3, 3-fluoro-4-(2-(1-methyl-1H-pyrazol-5-yl)phenoxy)-N-(thiazol-2-yl)benzenesulfonamide]
26 | 70 nM | CC(C)Oc1cccc(-c2cc(F)ccc2Oc2ccc(S(=O)(=O)Nc3ncns3)cc2C#N)c1 [Example 5, 3-cyano-4-[(5-fluoro-3′-isopropoxybiphenyl-2-yl)oxy]-N-1,2,4-thiadiazol-5-ylbenzenesulfonamide]
27 | 450 nM | CN(C)c1ncc(Oc2ccc(S(=O)(=O)Nc3ncns3)cc2C#N)c(-c2ccc(F)cc2)n1 [Example 8, 3-cyano-4-{[2-(dimethylamino)-4-(4-fluorophenyl)pyrimidin-5-yl]oxy}-N-1,2,4-thiadiazol-5-ylbenzenesulfonamide]
28 | 630 nM | COc1ccc(-c2ccccc2Oc2ccc(S(=O)(=O)Nc3ncns3)cc2C#N)c(C)c1 [Example 10, 3-cyano-4-[(4′-methoxy-2′-methylbiphenyl-2-yl)oxy]-N-1,2,4-thiadiazol-5-ylbenzenesulfonamide]
29 | 430 nM | N#Cc1ccc(-c2ccccc2Oc2ccc(S(=O)(=O)Nc3ncns3)cc2C#N)cc1 [Example 11, 3-cyano-4-[(4′-cyanobiphenyl-2-yl)oxy]-N-1,2,4-thiadiazol-5-ylbenzenesulfonamide]
30 | 170 nM | COc1cc(-c2ccccc2Oc2ccc(S(=O)(=O)Nc3ncns3)cc2C#N)ccc1C#N [Example 13, 3-cyano-4-[(4′-cyano-3′-methoxybiphenyl-2-yl)oxy]-N-1,2,4-thiadiazol-5-ylbenzenesulfonamide]
31 | 110 nM | N#Cc1cc(S(=O)(=O)Nc2ncns2)ccc1Oc1ccccc1-c1ccccc1 [Example 24, 4-(biphenyl-2-yloxy)-3-cyano-N-(1,2,4-thiadiazol-5-yl)benzenesulfonamide]
32 | 450 nM | N#Cc1cc(S(=O)(=O)Nc2ncns2)ccc1Oc1ccc(F)cc1-c1ccnn1CC(F)(F)F [Example 26, 3-cyano-4-(4-fluoro-2-(1-(2,2,2-trifluoroethyl)-1H-pyrazol-5-yl)phenoxy)-N-(1,2,4-thiadiazol-5-yl)benzenesulfonamide]
33 | 230 nM | CCOC(=O)Cn1nccc1-c1cc(Cl)ccc1Oc1ccc(S(=O)(=O)Nc2ncns2)cc1C#N [Example 29, ethyl 2-(5-(2-(4-(N-1,2,4-thiadiazol-5-ylsulfamoyl)-2-cyanophenoxy)-5-chlorophenyl)-1H-pyrazol-1-yl)acetate]
34 | 300 nM | COC(=O)c1ccc(Oc2ccc(S(=O)(=O)Nc3ncns3)cc2C#N)c(-c2ccnn2C)c1 [Example 30, methyl 4-(4-(N-1,2,4-thiadiazol-5-ylsulfamoyl)-2-cyanophenoxy)-3-(1-methyl-1H-pyrazol-5-yl)benzoate]
35 | 380 nM | N#Cc1cc(S(=O)(=O)Nc2ncns2)ccc1Oc1ccc(F)cc1-c1cc(F)ccc1F [Example 33, 3-cyano-N-1,2,4-thiadiazol-5-yl-4-[(2′,5,5′-trifluorobiphenyl-2-yl)oxy]benzenesulfonamide]
36 | 90 nM | CC(C)Oc1cccc(-c2ccccc2Oc2ccc(S(=O)(=O)Nc3ncns3)cc2C#N)c1 [Example 34, 3-cyano-4-[(3′-isopropoxybiphenyl-2-yl)oxy]-N-1,2,4-thiadiazol-5-ylbenzenesulfonamide]

Same assay, conditions: estimated IC50; hSCN9A HEK cells, PatchXpress platform; Examples 283-814

Row | Compound | IC50
37 | 4-(4-chloro-2-piperidin-4-ylphenoxy)-2,5-difluoro-N-1,2,4-thiadiazol-5-ylbenzenesulfonamide [Example 636] | 8.4 nM
38 | 4-[2-(2-aminopyridin-4-yl)-4-(trifluoromethoxy)phenoxy]-2,5-difluoro-N-1,2,4-thiadiazol-5-ylbenzenesulfonamide [Example 552] | 2.4 nM
39 | 4-[2-fluoro-4-(3-methoxy-1-methyl-1H-pyrazol-5-yl)phenoxy]-N-1,3-thiazol-2-ylbenzenesulfonamide [Example 435] | 2700 nM
